The target in this test is T1, Human MDM2 (HDM2) 1-116 (Homo sapiens, UniProt Q00987).
T1 construct: Human MDM2 (HDM2) 1-116
In words: Fluorescence polarization assay, MDM2/p53 (Table 3). It counts as binding. As to the method:
(§1) Human MDM2 (HDM2) 1-116 (20 μL) and FITC-labeled p53 (18-26), 50 nM and 10 nM respectively in 10 mM Tris, 50 mM NaCl, 0.01% Tween20, and 1 mM DTT at pH 7.4 were dispensed into an opaque, black, 384 well plate. Compounds dissolved in DMSO were pin transferred (˜200 nL) to the 384 well plate containing the MDM2/p53 solution. After incubation for 10 minutes, the fluorescence polarization was read on a Molecular Devices SpectraMax plate reader equipped with a Fluorescein FP cartridge. In addition to probe alone (positive control) and probe/MDM2 (negative control), a titration of linear p53(18-26) was included on every plate as an additional control. IC50 values were fit using either Prism or Collaborative Drug Discovery.
as §1, with “and FAM-labeled RFMDYWEGL-NH2,” for “and FITC-labeled p53 (18-26),”, “NaCl, 0.010%” for “NaCl, 0.01%”, “transferred (˜100-200” for “transferred (˜200”, “for 60” for “for 10”
Background: In fluorescence polarisation assays a small probe gives low polarisation when free and higher when bound to something large.

SMILES strings stand for the structures. pIC50: −log10 of the molar value. Non-standard residues stand in square brackets, D forms with d. Residues, ends and D or L forms follow the SMILES beside them. Phe(4-Cl) = N[C@@H](Cc1ccc(Cl)cc1)C(=O)O; Phe(3-F) = N[C@@H](Cc1cccc(F)c1)C(=O)O; Phe(4-F) = N[C@@H](Cc1ccc(F)cc1)C(=O)O; 3Pal = N[C@@H](Cc1cccnc1)C(=O)O; NMeL = CN[C@@H](CC(C)C)C(=O)O; dNMeV = CN[C@@H](C(=O)O)C(C)C; NMeNle = CCCC[C@H](NC)C(=O)O; Tle = CC(C)(C)[C@H](N)C(=O)O; NMeV = CN[C@H](C(=O)O)C(C)C; dPip = O=C(O)[C@H]1CCCCN1; NMeA = CN[C@@H](C)C(=O)O; Nme = COCCNCC(=O)O

T1 sequence (Q00987 1-116): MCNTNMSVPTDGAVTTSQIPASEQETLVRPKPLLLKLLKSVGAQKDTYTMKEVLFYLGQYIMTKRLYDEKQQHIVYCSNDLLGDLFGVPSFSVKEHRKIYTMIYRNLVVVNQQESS

The compound `CC(C)[C@H]1C(=O)N[C@@H](Cc2cccnc2)C(=O)N2CCC[C@@H]2C(=O)N(C)[C@@H](C)C(=O)N[C@@H](Cc2ccc(F)cc2)C(=O)N[C@@H](C(C)(C)C)C(=O)N[C@@H](Cc2ccc(Cl)cc2)C(=O)N2CCCC[C@@H]2C(=O)N2CCC[C@H]2C(=O)N[C@@H](Cc2ccccc2)C(=O)N1C` [Compound 27, CC(C)[C@@H]1N(C)C(=O)[C@H](Cc2ccccc2)NC(=O)[C@@H]2CCCN2C(=O)[C@H]2CCCCN2C(=O)[C@H](Cc2ccc(Cl)cc2)NC(=O)[C@@H](NC(=O)[C@H](Cc2ccc(F)cc2)NC(=O)[C@H](C)N(C)C(=O)[C@H]2CCCN2C(=O)[C@H](Cc2cccnc2)NC1=O)C(C)(C)C] (cyclo([3Pal][dP][NMeA][Phe(4-F)][Tle][Phe(4-Cl)][dPip]PF[NMeV])) gave a pIC50 of 5.60 to 6.00.
The value for `COCCN1CC(=O)N(C)[C@@H](C)C(=O)N[C@@H](Cc2ccc(F)cc2)C(=O)N(C)[C@@H](C)C(=O)N[C@@H](Cc2ccc(Cl)cc2)C(=O)N(C)[C@H](C(C)C)C(=O)N2CCC[C@H]2C(=O)N[C@@H](Cc2ccccc2)C(=O)N[C@@H](C(C)(C)C)C(=O)N[C@@H](Cc2ccc(O)cc2)C1=O` [Compound 14, [H]Oc1ccc(C[C@@H]2NC(=O)[C@@H](NC(=O)[C@H](Cc3ccccc3)NC(=O)[C@@H]3CCCN3C(=O)[C@@H](C(C)C)N(C)C(=O)[C@H](Cc3ccc(Cl)cc3)NC(=O)[C@H](C)N(C)C(=O)[C@H](Cc3ccc(F)cc3)NC(=O)[C@H](C)N(C)C(=O)CN(CCOC)C2=O)C(C)(C)C)cc1] (cyclo(F[Tle]Y[Nme][NMeA][Phe(4-F)][NMeA][Phe(4-Cl)][dNMeV]P)) was 5.60 to 6.00; that for `COCCN1CC(=O)N(C)[C@@H](C)C(=O)N[C@@H](Cc2ccc(F)cc2)C(=O)N(C)[C@@H](C)C(=O)N[C@@H](Cc2ccc(Cl)cc2)C(=O)N2CCCC[C@@H]2C(=O)N2CCC[C@H]2C(=O)N[C@@H](Cc2ccccc2)C(=O)N[C@@H](C(C)(C)C)C(=O)N[C@@H](Cc2cccc(F)c2)C1=O` [Compound 22, COCCN1CC(=O)N(C)[C@@H](C)C(=O)N[C@@H](Cc2ccc(F)cc2)C(=O)N(C)[C@@H](C)C(=O)N[C@@H](Cc2ccc(Cl)cc2)C(=O)N2CCCC[C@@H]2C(=O)N2CCC[C@H]2C(=O)N[C@@H](Cc2ccccc2)C(=O)N[C@H](C(=O)N[C@@H](Cc2cccc(F)c2)C1=O)C(C)(C)C] (cyclo(F[Tle][Phe(3-F)][Nme][NMeA][Phe(4-F)][NMeA][Phe(4-Cl)][dPip]P)) was 5.60 to 6.00.
Compound `C[C@H]1C(=O)N[C@@H](Cc2ccc(Cl)cc2)C(=O)N2CCCC[C@@H]2C(=O)N2CCC[C@H]2C(=O)N[C@@H](Cc2ccccc2)C(=O)N[C@@H](C(C)(C)C)C(=O)N[C@@H](Cc2ccc(O)cc2)C(=O)N2CCC[C@@H]2C(=O)N(C)[C@@H](C)C(=O)N[C@@H](Cc2ccc(F)cc2)C(=O)N1C` [Compound 10, [H]Oc1ccc(C[C@@H]2NC(=O)[C@@H](NC(=O)[C@H](Cc3ccccc3)NC(=O)[C@@H]3CCCN3C(=O)[C@H]3CCCCN3C(=O)[C@H](Cc3ccc(Cl)cc3)NC(=O)[C@H](C)N(C)C(=O)[C@H](Cc3ccc(F)cc3)NC(=O)[C@H](C)N(C)C(=O)[C@H]3CCCN3C2=O)C(C)(C)C)cc1] (cyclo(F[Tle]Y[dP][NMeA][Phe(4-F)][NMeA][Phe(4-Cl)][dPip]P)) showed a pIC50 of 5.60 to 6.00.
The value for `CCCC[C@H]1C(=O)N[C@@H](Cc2ccccc2)C(=O)N2CCC[C@@H]2C(=O)N2CCC[C@H]2C(=O)N[C@@H](Cc2ccccc2)C(=O)N(C)[C@@H](CCCC)C(=O)N[C@@H](Cc2c[nH]c3ccccc23)C(=O)N(C)[C@@H](CC(C)C)C(=O)N[C@@H](CC(=O)O)C(=O)N[C@@H](Cc2c[nH]c3ccccc23)C(=O)N1C` [Compound 7, [H]OC(=O)C[C@@H]1NC(=O)[C@H](CC(C)C)N(C)C(=O)[C@H](Cc2cn([H])c3ccccc23)NC(=O)[C@H](CCCC)N(C)C(=O)[C@H](Cc2ccccc2)NC(=O)[C@@H]2CCCN2C(=O)[C@H]2CCCN2C(=O)[C@H](Cc2ccccc2)NC(=O)[C@H](CCCC)N(C)C(=O)[C@H](Cc2cn([H])c3ccccc23)NC1=O] (cyclo(F[NMeNle]W[NMeL]DW[NMeNle]F[dP]P)) was no more than 5.30; that for `COCCN1CC(=O)N(C)[C@@H](C)C(=O)N[C@@H](Cc2ccc(F)cc2)C(=O)N(C)[C@@H](C)C(=O)N[C@@H](Cc2ccc(Cl)cc2)C(=O)N(C)[C@H](C(C)C)C(=O)N2CCC[C@H]2C(=O)N[C@@H](Cc2ccccc2)C(=O)N[C@@H](C(C)(C)C)C(=O)N[C@@H](Cc2ccc(O)cc2)C1=O` [Compound 31, [H]Oc1ccc(C[C@@H]2NC(=O)[C@@H](NC(=O)[C@H](Cc3ccccc3)NC(=O)[C@@H]3CCCN3C(=O)[C@@H](C(C)C)N(C)C(=O)[C@H](Cc3ccc(Cl)cc3)NC(=O)[C@H](C)N(C)C(=O)[C@H](Cc3ccc(F)cc3)NC(=O)[C@H](C)N(C)C(=O)CN(CCOC)C2=O)C(C)(C)C)cc1] (cyclo(F[Tle]Y[Nme][NMeA][Phe(4-F)][NMeA][Phe(4-Cl)][dNMeV]P)) was no more than 5.30; that for `C[C@H]1C(=O)N[C@@H](Cc2cccnc2)C(=O)N2CCC[C@@H]2C(=O)N(C)[C@@H](C)C(=O)N[C@@H](Cc2ccc(F)cc2)C(=O)N[C@@H](C(C)(C)C)C(=O)N[C@@H](Cc2ccc(Cl)cc2)C(=O)N2CCCC[C@@H]2C(=O)N2CCC[C@H]2C(=O)N[C@@H](Cc2ccccc2)C(=O)N1C` [Compound 26, C[C@@H]1N(C)C(=O)[C@H]2CCCN2C(=O)[C@H](Cc2cccnc2)NC(=O)[C@H](C)N(C)C(=O)[C@H](Cc2ccccc2)NC(=O)[C@@H]2CCCN2C(=O)[C@H]2CCCCN2C(=O)[C@H](Cc2ccc(Cl)cc2)NC(=O)[C@@H](NC(=O)[C@H](Cc2ccc(F)cc2)NC1=O)C(C)(C)C] (cyclo([3Pal][dP][NMeA][Phe(4-F)][Tle][Phe(4-Cl)][dPip]PF[NMeA])) was greater than 6.00.
Consider `C[C@H]1C(=O)N[C@@H](Cc2ccc(Cl)cc2)C(=O)N2CCCC[C@@H]2C(=O)N2CCC[C@H]2C(=O)N[C@@H](Cc2ccccc2)C(=O)N[C@@H](C(C)(C)C)C(=O)N[C@@H](Cc2ccc(O)cc2)C(=O)N2CCC[C@@H]2C(=O)N(C)[C@@H](C)C(=O)N[C@@H](Cc2ccc(F)cc2)C(=O)N1C` [Compound 11, [H]Oc1ccc(C[C@@H]2NC(=O)[C@@H](NC(=O)[C@H](Cc3ccccc3)NC(=O)[C@@H]3CCCN3C(=O)[C@H]3CCCCN3C(=O)[C@H](Cc3ccc(Cl)cc3)NC(=O)[C@H](C)N(C)C(=O)[C@H](Cc3ccc(F)cc3)NC(=O)[C@H](C)N(C)C(=O)[C@H]3CCCN3C2=O)C(C)(C)C)cc1] (cyclo(F[Tle]Y[dP][NMeA][Phe(4-F)][NMeA][Phe(4-Cl)][dPip]P)), for which the pIC50 is no more than 5.30.
As for `C[C@H]1C(=O)N[C@@H](Cc2ccc(F)cc2)C(=O)N[C@@H](CCC(=O)O)C(=O)N[C@@H](Cc2ccccc2)C(=O)N2CCCC[C@@H]2C(=O)N2CCC[C@H]2C(=O)N[C@@H](Cc2ccccc2)C(=O)N[C@@H](CCC(=O)O)C(=O)N[C@@H](Cc2c[nH]c3ccccc23)C(=O)N2CCC[C@@H]2C(=O)N1C` [Compound 9, [H]OC(=O)CC[C@@H]1NC(=O)[C@H](Cc2ccccc2)NC(=O)[C@@H]2CCCN2C(=O)[C@H]2CCCCN2C(=O)[C@H](Cc2ccccc2)NC(=O)[C@H](CCC(=O)O[H])NC(=O)[C@H](Cc2ccc(F)cc2)NC(=O)[C@H](C)N(C)C(=O)[C@H]2CCCN2C(=O)[C@H](Cc2cn([H])c3ccccc23)NC1=O] (cyclo(EF[dPip]PFEW[dP][NMeA][Phe(4-F)])), the pIC50 was greater than 6.00.
The compound `COCCN1CC(=O)N(C)[C@@H](C)C(=O)N[C@@H](Cc2ccc(F)cc2)C(=O)N(C)[C@@H](C)C(=O)N[C@@H](Cc2ccc(Cl)cc2)C(=O)N(C)[C@H](C(C)C)C(=O)N2CCC[C@H]2C(=O)N[C@@H](Cc2ccccc2)C(=O)N[C@@H](C(C)(C)C)C(=O)N[C@@H](Cc2cccnc2)C1=O` [Compound 23, COCCN1CC(=O)N(C)[C@@H](C)C(=O)N[C@@H](Cc2ccc(F)cc2)C(=O)N(C)[C@@H](C)C(=O)N[C@@H](Cc2ccc(Cl)cc2)C(=O)N(C)[C@H](C(C)C)C(=O)N2CCC[C@H]2C(=O)N[C@@H](Cc2ccccc2)C(=O)N[C@H](C(=O)N[C@@H](Cc2cccnc2)C1=O)C(C)(C)C] (cyclo([3Pal][Nme][NMeA][Phe(4-F)][NMeA][Phe(4-Cl)][dNMeV]PF[Tle])) showed a negative-log IC50 (pIC50) greater than 6.00.
`C[C@H]1C(=O)N[C@@H](Cc2ccc(Cl)cc2)C(=O)N2CCCC[C@@H]2C(=O)N2CCC[C@H]2C(=O)N[C@@H](Cc2cccnc2)C(=O)N[C@@H](CCC(=O)O)C(=O)N[C@@H](Cc2ccc(O)cc2)C(=O)N2CCC[C@@H]2C(=O)N(C)[C@@H](C)C(=O)N[C@@H](Cc2ccc(F)cc2)C(=O)N1C` [Compound 16, [H]OC(=O)CC[C@@H]1NC(=O)[C@H](Cc2cccnc2)NC(=O)[C@@H]2CCCN2C(=O)[C@H]2CCCCN2C(=O)[C@H](Cc2ccc(Cl)cc2)NC(=O)[C@H](C)N(C)C(=O)[C@H](Cc2ccc(F)cc2)NC(=O)[C@H](C)N(C)C(=O)[C@H]2CCCN2C(=O)[C@H](Cc2ccc(O[H])cc2)NC1=O] (cyclo([3Pal]EY[dP][NMeA][Phe(4-F)][NMeA][Phe(4-Cl)][dPip]P)) gave a pIC50 greater than 6.00.

Usually pIC50 stands for the negative decadic logarithm of the IC50, by convention in mol/L. The low end stands for a high IC50, the high end for a low IC50.

Values taken from patent publication US20220411471A1, “CELL-PERMEABLE CYCLIC PEPTIDES AND USES THEREOF” (Unnatural Products Inc., priority 2019, published 2022).
